Legend:
[1] = system: PSA-peptide tetramer+CD8+ cells; assay: PSA-peptide-HLA-A2 tetramer analysis of PBMC from vaccinated patients; format: in vivo, human; conditions: out of 28 patients (50%), week 26 and/or week 52
[2] = DTH skin testing with PSA-peptide; format: in vivo, human
Method: A total of 28 patients were vaccinated with PSA-peptide at three time points, i.e., weeks 1, 4 and 10 and DTH skin testing was performed on weeks 4, 14, 26 and 52.

T2 cells = assay: Chromium release assay (CRA), 4 hour; format: cell-based, human
Method: Specific cytolytic activity was analyzed by standard 4 hour CRA as previously described (Xue et al., (1997) Prostate 30:73). […] Supernatants recovered from CRA were assayed for gamma emission using a Top-count NXT scintillation counter (Packard, Meriden, Conn.) and the percent specific lysis was calculated as previously described (Xue et al., (1997) Prostate 30:73).

DTH-derived T-cells = assay: Cytokine bead array (CBA) of DTH-derived T-cells cultured with peptide-pulsed T2 cells; format: cell-based, human
Method: Out-growth of T-cells was observed within 3 days. On day 4, 500 μl of the spent medium was aspirated and replenished with fresh medium plus IL-2 and cultured further for a total of 6-8 days, until the culture wells became confluent. […] Each cycle of stimulation was 7±1 days. Cytokines released into the culture supernatant, including IFN-γ, TNF-α, IL-4, IL-6 and IL-10, were measured concurrently by cytokine bead array (CBA) analysis (BD Biosciences, San Diego, Calif.). The antigen presenting cell line, T2 (ATCC, Manassas, Va.) was used as a stimulator and was pulsed with 20 μg/ml of PSA-peptide or control HLA-A2 binding peptide, HIV-RT476-484 or diluent alone (0.4% volume by volume). T2 cells (25,000/well) were cultured with DTH-derived T-cells (100,000/well) in complete medium containing 30 U/ml of IL-2 in a total volume of 1 ml per well in 48-well plates. […] Cells were incubated at 37° C. for 24 hours in 5% CO2 atmosphere. Supernatants were harvested and stored in sterile vials at −80° C. At the time of assay, samples were thawed and cytokines were measured using a CBA kit as per the manufacturer's protocol with a FACSCalibur flow cytometer (Becton Dickinson, Mountain View, Calif.).

[3] = 6 out of 7 patients, after 1-3 cycles in vitro stimulation with PSA-peptide
[4] = four patients, after 1-3 cycles in vitro stimulation

KLQCVDLHV (listed as Homo sapiens) [PSA-peptide]
patients who developed ≧4 fold increases in CD8+ PSA-peptide specific tetramer cells [1]: 14 patients | DTH induration with increasing doses of peptide ([2]; 1 to 20 μg peptide, responding patients): increasing level of DTH induration | patients who developed positive DTH responses to PSA-peptide over time ([2]; of 28 patients (fifty percent), DTH testing weeks 4, 14, 26, 52): 14 patients | lysis of PSA-peptide-pulsed T2 cells by sorted CD4−CD8+ T-cells, compared to HIV-RT476-484 or no peptide (T2 cells; 4 patients, 1-4 cycles in vitro stimulation): peptide-specific lysis | cytolytic activity of induced T-cells (T2 cells; patient UPIN40): modest cytolytic activity | cytolytic activity of induced T-cells (T2 cells; patients UPIN45, UPIN 55, UPIN 49): strongly cytolytic | specific IFN-γ responses, median (DTH-derived T-cells; [3]): 163 pg/mL | specific IFN-γ responses, range over patients (DTH-derived T-cells; [3]): 85 to 1030 pg/mL | specific levels of IL-4, range over patients (DTH-derived T-cells; [4]): 18 to 486 pg/mL | specific levels of TNF-α, median (DTH-derived T-cells; [4]): 38 pg/mL | specific levels of TNF-α, range over patients (DTH-derived T-cells; [4]): 23 to 96 pg/mL | IL-6 expression (DTH-derived T-cells; one patient (UPIN 49)): Non-specific expression | patients whose DTH-derived T-cells showed specific IFN-γ responses (DTH-derived T-cells; out of 7 patients): 6 patients | cytokine responses against T2 cells pulsed with PSA-peptide compared to HIV-RT476-484 or no peptide (DTH-derived T-cells; patient UPIN55, cycle 0, without peptide priming in vitro): specific cytokine responses

— patent US20080095790A1, “Methods of Treating Prostate Cancer” (priority 2006, published 2008)
